Assay results: patent US20180280485A1, “THIORETINAMIDE COMPOSITIONS FOR THE APOPTOSIS OF MALIGNANT CELLS WHILE PREVENTING THE APOPTOSIS OF NORMAL CELLS AND RELATED METHODS” (priority 2017, published 2018)

Assays:
[1] = tested on: human pancreatic adenocarcinoma cells; details: in vitro, cited from earlier work; for growth of cells: without cellular degeneration
[2] = tested on: human adenocarcinoma cells; assay: Growth of cultured human adenocarcinoma cells (Example 7); type: cell-based; details: for cell growth (10^5): cell number day 4, 10^5 cells passaged day 0, no addition 7.4 ± 2.7; for cell growth (10^5) / cell growth (% of control): TR2Co/TR 30 mg/dL, DATS/NBS 1.0 mg/dL; for cell growth (% of control): day 4; for inhibition of growth of cultured human adenocarcinoma cells: each compound alone, Table 2
Procedure: Human adenocarcinoma cells were cultured in RPMI medium with added fetal bovine serum and antibiotics, as reported by McCully K S et al in Research Communications in Chemical Pathology and Pharmacology, 1992; 77: 125-128 and reviewed by Ariga T et al in Biofactors 2006; 26: 93-103. Equal numbers (10^5) of adenocarcinoma cells were trypsinized and passaged on day 0, and the cells were refed with media containing test compounds on days 1 and 3. Cell numbers were determined by trypsinization on day 4. Thioretinaco (TR2Co) and thioretinamide (TR) were synthesized, as previously described (McCully U.S. Pat. No. 4,618,685; McCully U.S. Pat. No. 4,925,931) and dissolved in absolute ethanol. Authentic diallyl trisulfide ([…]) and napabucasin (NBS) were solubilized in propylene glycol. Propylene glycol (PG) was added to the ethanol solutions of the test compounds, the ethanol was evaporated under reduced pressure at 37° C., and the resulting solutions in propylene glycol were added to the culture media.

normal fibroblasts = details: in vitro; cited from earlier work
[3] = tested on: Normal control cell lines; details: versus human leukemia and myeloma cell lines; cited from earlier work
Caenorhabtidis elegans = details: exposure to diallyl trisulfide; cited from earlier work
[4] = tested on: human colon carcinoma cells; details: in vitro; read-out: inhibitory concentration (IC50) against proliferation; cited from earlier work
[5] = Toxicity in animal tests or human trials; type: in vivo; details: 7.5 mg/70 kg/day to 300 mg/70 kg/day

| Compound | growth of cells [1] | lactate production [1] | cell growth (10^5) [2] | cell growth (% of control) [2] | inhibition of growth of cultured human adenocarcinoma cells [2] | growth and lactate production (normal fibroblasts) | increase in concentration required to produce apoptosis and growth inhibition in normal control cell lines [3] | increase of lifespan (Caenorhabtidis elegans) | IC50 [4] | toxicity (weight loss, nausea, impairment of liver function, headache, skin lesions) [5] |
| --- | --- | --- | --- | --- | --- | --- | --- | --- | --- | --- |
| N-homocysteine thiolactonyl retinamido cobalamin [TR2Co] | inhibited | increased | 2.5 ± 0.82 10^5 | 33 % of control | significantly inhibit growth | unaffected |  |  |  |  |
| Cc1cc2c(o1)C(=O)c1ccccc1C2=O [FHQ3, 2-methyl-naphtho[2,3-b]furan-4,9 dione] |  |  |  |  |  |  | 10 fold |  |  |  |
| C=CCSSSCC=C [DATS, diallyl trisulfide, reference compound] |  |  | 2.7 ± 0.57 10^5 | 36 % of control | significantly inhibit growth |  |  | approximately 12% | 5 µM |  |
| O=C(O)Cc1cc2c(o1)C(=O)c1ccccc1C2=O [NBS, 2-carboxymethyl-naphtho[2,3-b]furan-4,9-dione, reference compound] |  |  | 2.3 ± 0.52 10^5 | 28 % of control | significantly inhibit growth |  |  |  |  |  |
| CC1=C(/C=C/C(C)=C/C=C/C(C)=C/CO)C(C)(C)CCC1 [retinol, reference compound] |  |  |  |  |  |  |  |  |  | no evidence of toxicity |
| CC1=C(/C=C/C(C)=C/C=C/C(C)=C/C(=O)NC2CCSC2=O)C(C)(C)CCC1 (centres unmarked) [TR, N-homocysteine thiolactonyl retinamide] | inhibited | increased | 1.4 ± 0.50 10^5 | 19 % of control | significantly inhibit growth | unaffected |  |  |  | no evidence of toxicity |
